Reference: patent US20260356824A1, “COMPOUNDS FOR TREATING FIBROTIC DISEASES” (Meta-Immue Inc., priority 2023, published 2026)

Assays:
[1] = test system: A2058 cells; experiment: Chemotaxis Assay (LPA-induced migration of A2058 cells); assay type: cell-based; conditions: Homo sapiens, 4 to 8 hours, crystal violet 590 nm
How it was run: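 A2058 cells, starved 24 hr and treated with test compound or vehicle, were placed on a fibronectin-coated membrane ([…]) above […] in DMEM. After 4–8 h migration, migrated cells were crystal violet stained and read at 590 nm. Values are relative percentage of control.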

[2] = target: T1, BSEP (Homo sapiens, UniProt O95342); experiment: Bile Salt Export Pump (BSEP) Assay, Sf9 insect cell vesicles expressing BSEP; assay type: in vitro ADME; conditions: 10 μM test compound, probe substrate 1 μM [3H]-taurocholic acid, 15 min incubation
T1 construct: ATP-dependent uptake of radiolabelled probe substrate
Description: • 1. A stock solution was prepared with the test article (Sponsor compound) in DMSO. • 2. All final assay solutions of probe substrate, reference inhibitor or test article contain 0.5% (v/v) DMSO (vehicle control). • 3. Test article concentrations in transport study were specified in the Summary Table of Experimental Conditions of this protocol.
• 1. Bovine Serum Albumin (BSA) • 2. Dimethyl sulfoxide (DMSO) • 3. BSEP Assay Uptake Buffer (10 mM HEPES-Tris pH 7.4, 0.1 M KNO3, 12.5 mM Mg(NO3)2, 50 mM sucrose) • 4. BSEP Wash Buffer (10 mM Tris-HCl pH 7.4, 0.1 M KNO3, 50 mM sucrose) • 5. BSEP Blocking Buffer (BSEP Wash Buffer+0.5 mg/mL BSA) • 6. 25 mM Mg-ATP solution • 7. 25 mM AMP solution • 8. Corning Costar 96-well flat-bottom, untreated, white Assay Plate (Corning Cat. No. 3912) • 9. Millipore MultiscreenHTs Filtration Plate, glass fiber FB—1.0/0.65 μm (Cat. No. MSFBN6B10 or glass fiber FC—1.2/0.65 μm (Cat. No. MSFCN6B10) • 10. Millipore MultiscreenHTS Vacuum Manifold (Cat. No. MSVMHTS00) • 11. Probe substrates listed in Table 1 • 12. Reference inhibitors listed in Table 1 • 13. Test articles
• 1. Test system: • a. 96-well flat bottom plate containing a suspension of vesicles and a corresponding 96-well glass fiber filtration plate. • b. Transport experiments were conducted in the Assay Uptake Buffer. • c. Transport experiment was initiated with the addition of Mg-ATP or AMP to appropriate wells. • d. Each condition was run in triplicate wells. • 2. Prepared the 96-well flat-bottom assay plate. • a. Incubated the assay plate with the Blocking Buffer for 60 min at 37 °C with orbital shaking at approximately 90 rpm. (NOTE: This is done to prevent non-specific binding of vesicles to polystyrene assay plate). • b. After 60 min, completely removed the Blocking Buffer from the assay plate. • c. The Assay Uptake Buffer solutions were added to the assay plate wells as follows: • i. For probe substrate transport assays, the Assay Uptake Buffer contained vesicles and the probe substrate at the specified concentration. • ii. For the reference inhibition assay, the Assay Uptake Buffer contained vesicles, the reference inhibitor and the probe substrate at the specified concentration in Table 1. • iii. For the test article assays, Assay Uptake Buffer contained vesicles, the test article and the probe substrate at the specified concentration in Table 1. • 3. Incubate at 37 °C with orbital shaking at approximately 90 rpm for the time period specified in Table 1 of this protocol. • 4. Using the 25 mM Mg-ATP or AMP stocks, Mg-ATP or AMP was added to test wells of flat bottom assay plate to a final concentration of 5 mM. • 5. Incubated at 37 °C with orbital shaking at approximately 90 rpm for the incubation time specified in Table 1 of this protocol. • 6. Prepared the 96-well glass fiber filtration plate: • a. Incubated the filtration plate with the Blocking Buffer for 2 min at room temperature with under no vacuum. • b. Turned on vacuum and allowed Blocking Buffer to filter through plate. • c. With vacuum on, filter plate was washed with ice cold Wash Buffer. • 7. At the end of the specified incubation time indicated in […] of this protocol, vesicle transport was quenched by adding ice cold Wash Buffer to samples in 96-well assay plate. • 8. Mixed assay samples (now diluted in Wash Buffer) with pipette and transfered 175 μL into the 96-well glass fiber filtration plate to separate vesicles from buffer by applying vacuum. • 9. Washed filter plate wells with ice cold Wash Buffer. • 10. Allowed filter plate to dry under vacuum. • 11. Transfered filters to scintillation sample plate and added 700 μL of scintillation fluid to the above samples. • 12. Counted the above samples on a 1450 Microbeta (Perkin-Elmer).
• 1. The amount of substrate was quantified with radiometric detection on a 1450 Microbeta (Perkin-Elmer). • 2. For transport study samples run in triplicate, the mean and standard deviation of the replicates were reported. • 3. […]

[3] = Liver microsomal stability, rat; assay type: in vitro ADME; conditions: rat liver microsomes; 30 min; percent of parent remaining; read-out: Liver Microsomal stability (%), % of remaining after 30 min, Rat
[4] = target: T2, hLPAR1 (Homo sapiens, UniProt Q92633); experiment: Ca2+ Flux Assay (B103 cells stably expressing hLPAR1); assay type: cell-based; conditions: LPA-induced calcium release, Fura-2 AM, compound 20 min at RT
T2 construct: expressed in transfected cells
How it was run: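 Fura-2 AM (5 μM) loaded 40 min at RT in HBSS/20 mM HEPES/probenecid/0.3% fatty-acid-free BSA after 2 h serum starvation. Compounds preincubated 20 min at RT, then LPA […] added. Intracellular calcium mobilization read as fluorescence intensity.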

[5] = Liver microsomal stability, human; assay type: in vitro ADME; conditions: human liver microsomes; 30 min; percent of parent remaining; read-out: Liver Microsomal stability (%), % of remaining after 30 min, Human

T1 sequence (O95342 whole entry): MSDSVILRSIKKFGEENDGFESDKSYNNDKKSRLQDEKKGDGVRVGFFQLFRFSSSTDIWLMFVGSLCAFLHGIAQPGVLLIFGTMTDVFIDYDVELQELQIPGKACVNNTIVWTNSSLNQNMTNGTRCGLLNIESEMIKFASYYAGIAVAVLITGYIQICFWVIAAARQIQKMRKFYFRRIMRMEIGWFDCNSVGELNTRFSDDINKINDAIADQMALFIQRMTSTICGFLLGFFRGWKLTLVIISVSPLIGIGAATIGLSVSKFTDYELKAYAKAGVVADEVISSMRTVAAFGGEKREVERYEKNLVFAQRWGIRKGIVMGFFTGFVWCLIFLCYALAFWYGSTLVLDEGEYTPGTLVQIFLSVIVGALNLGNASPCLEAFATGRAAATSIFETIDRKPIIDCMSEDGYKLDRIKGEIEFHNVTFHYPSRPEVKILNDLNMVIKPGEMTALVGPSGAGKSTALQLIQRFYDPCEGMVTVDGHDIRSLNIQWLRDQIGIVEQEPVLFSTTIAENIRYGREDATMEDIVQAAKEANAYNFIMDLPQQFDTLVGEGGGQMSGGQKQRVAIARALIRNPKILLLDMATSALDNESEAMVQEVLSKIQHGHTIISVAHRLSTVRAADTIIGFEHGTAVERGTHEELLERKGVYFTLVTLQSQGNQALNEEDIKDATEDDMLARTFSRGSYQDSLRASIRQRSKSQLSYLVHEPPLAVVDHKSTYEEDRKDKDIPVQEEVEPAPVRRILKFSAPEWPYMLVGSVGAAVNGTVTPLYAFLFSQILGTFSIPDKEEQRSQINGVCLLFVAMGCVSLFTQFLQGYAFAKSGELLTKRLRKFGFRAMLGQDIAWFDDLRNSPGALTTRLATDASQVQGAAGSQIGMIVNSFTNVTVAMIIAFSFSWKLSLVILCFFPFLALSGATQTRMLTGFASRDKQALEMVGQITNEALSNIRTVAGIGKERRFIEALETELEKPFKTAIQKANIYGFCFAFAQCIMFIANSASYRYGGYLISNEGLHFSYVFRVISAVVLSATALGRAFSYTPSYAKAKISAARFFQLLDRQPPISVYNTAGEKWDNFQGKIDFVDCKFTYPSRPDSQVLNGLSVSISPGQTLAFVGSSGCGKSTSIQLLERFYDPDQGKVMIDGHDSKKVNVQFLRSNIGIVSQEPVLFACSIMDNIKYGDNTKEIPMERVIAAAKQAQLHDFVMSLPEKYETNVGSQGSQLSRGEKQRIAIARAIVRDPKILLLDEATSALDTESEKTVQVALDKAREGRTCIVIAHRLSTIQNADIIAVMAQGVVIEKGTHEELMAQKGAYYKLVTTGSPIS
T2 sequence (Q92633 whole entry): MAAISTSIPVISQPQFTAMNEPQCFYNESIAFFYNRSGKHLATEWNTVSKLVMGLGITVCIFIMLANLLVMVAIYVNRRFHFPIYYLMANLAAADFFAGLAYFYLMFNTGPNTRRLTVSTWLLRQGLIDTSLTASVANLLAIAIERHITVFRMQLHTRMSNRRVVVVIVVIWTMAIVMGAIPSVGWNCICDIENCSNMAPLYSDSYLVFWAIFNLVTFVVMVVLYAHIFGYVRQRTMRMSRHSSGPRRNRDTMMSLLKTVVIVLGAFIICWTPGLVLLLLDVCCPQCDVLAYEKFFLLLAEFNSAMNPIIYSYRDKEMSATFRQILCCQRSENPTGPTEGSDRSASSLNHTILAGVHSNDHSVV

| SMILES | IC50 [1] | inhibition at 0.25 h, 10 µM [2] | remaining at 0.5 h [3] | IC50 [4] | remaining at 0.5 h [5] |
| --- | --- | --- | --- | --- | --- |
| Cc1noc([C@H]2CCN(c3ccc(C4(C(=O)O)CC4)cc3)[C@@H](C)C2)c1NC(=O)O[C@H](C)c1ccccc1 (single isomer, unassigned) [Compound 10] | < 0.1 µM | 25 to 50% | > 75% | 0.01 to 0.2 µM | > 75% |
| Cc1noc([C@@H]2CCN(c3ccc(C4(C(=O)O)CC4)cc3)[C@H](C)C2)c1NC(=O)O[C@H](C)c1ccccc1 (single isomer, unassigned) [Compound 21] | < 0.1 µM | – | > 75% | 0.01 to 0.2 µM | > 75% |
| Cn1nnc(C2CCN(c3ccc(C4(C(=O)O)CC4)cc3)CC2)c1Nc1cccc(-c2ccccc2)n1 [Compound 6] | 0.5 to 5 µM | – | > 75% | 0.01 to 0.2 µM | > 75% |
| Cc1noc(N2CCC(c3ccc(C4(C(=O)O)CC4)cc3)CC2)c1NC(=O)O[C@H](C)c1ccccc1 [Compound 8, (R)-1-(4-(1-(3-methyl-4-(((1-phenylethoxy)carbonyl)amino)isoxazol-5-yl)piperidin-4-yl)phenyl)cyclopropane-1-carboxylic acid] | 0.1 to 0.5 µM | 50 to 75% | 50 to 75% | < 0.01 µM | 50 to 75% |
| Cc1noc(C2CCN(c3ccc(C4(C(=O)NS(C)(=O)=O)CC4)cc3)CC2)c1NC(=O)O[C@H](C)c1ccccc1 [Compound 12] | < 0.1 µM | 25 to 50% | 50 to 75% | 0.01 to 0.2 µM | > 75% |
| CCCN(C)C(=O)OCc1c(C)noc1C1CCN(c2ccc(C3(C(=O)NS(=O)(=O)C(F)(F)F)CC3)cc2)CC1 [Compound 13] | ≥ 5 µM | – | 50 to 75% | ≥ 3 µM | ≤ 25% |
| Cc1noc(C2CCN(c3ccc(C4(C(=O)O)CC4)cc3)CC2)c1N[C@H](C)CCc1ccccc1 [Compound 22] | 0.1 to 0.5 µM | – | 50 to 75% | 0.01 to 0.2 µM | 50 to 75% |
| Cc1noc(C2CN(c3ccc(C4(C(=O)O)CC4)cc3)C2)c1NC(=O)O[C@H](C)c1ccccc1 [Compound 23, (R)-1-(4-(3-(3-methyl-4-(((1-phenylethoxy)carbonyl)amino)isoxazol-5-yl)azetidin-1-yl)phenyl)cyclopropane-1-carboxylic acid] | 0.5 to 5 µM | 25 to 50% | > 75% | 0.01 to 0.2 µM | > 75% |
| Cc1noc(C2CCN(c3ccc(C4(C(=O)O)CC4)cc3)CC2)c1CNC(=O)O[C@@H](C)c1ccccc1 [Compound 25] | ≥ 5 µM | – | > 75% | 0.01 to 0.2 µM | > 75% |
| Cc1ccccc1[C@@H](C)OC(=O)Nc1c(C)noc1C1CCN(c2ccc(C3(C(=O)NS(N)(=O)=O)CC3)cc2)CC1 [Compound 35] | < 0.1 µM | – | 50 to 75% | < 0.01 µM | 25 to 50% |
| CCc1ccccc1[C@@H](C)OC(=O)Nc1c(C)noc1C1CCN(c2ccc(C3(C(=O)O)CC3)cc2)CC1 [Compound 38, (R)-1-(4-(4-(4-(((1-(2-ethylphenyl)ethoxy)carbonyl)amino)-3-methylisoxazol-5-yl)piperidin-1-yl)phenyl)cyclopropane-1-carboxylic acid] | < 0.1 µM | 50 to 75% | > 75% | < 0.01 µM | 25 to 50% |
| Cc1nc(C2(C(=O)O)CC2)ccc1N1CCC(c2onc(C)c2NC(=O)O[C@H](C)c2ccccc2)CC1 [Compound 62] | 0.1 to 0.5 µM | 25 to 50% | > 75% | 0.01 to 0.2 µM | > 75% |
| Cc1noc(C2CCN(c3ccc(C4(c5cc(O)no5)CC4)cc3)CC2)c1NC(=O)O[C@H](C)c1ccccc1 [Compound 64] | < 0.1 µM | 75 to 100% | 25 to 50% | < 0.01 µM | 50 to 75% |
| Cc1noc(C2CCN(c3ccc(C4(C(=O)NS(=O)(=O)C(C)(C)C(=O)O)CC4)cc3)CC2)c1NC(=O)O[C@H](C)c1ccccc1 [Compound 67, 2-methyl-2-[[1-[4-[4-[3-methyl-4-[[(1R)-1-phenylethoxy]carbonylamino]isoxazol-5-yl]-1-piperidyl]phenyl]cyclopropanecarbonyl]sulfamoyl]propanoic acid] | < 0.1 µM | 25 to 50% | > 75% | < 0.01 µM | > 75% |
| Cc1noc(C2CCN(c3ccc(C4(C(=O)NS(=O)(=O)C(C)(C)CO)CC4)cc3)CC2)c1NC(=O)O[C@H](C)c1ccccc1 [Compound 70] | < 0.1 µM | – | > 75% | < 0.01 µM | > 75% |
| Cc1noc(C2CCN(c3ccc(C4(C(=O)NS(=O)(=O)CC(=O)O)CC4)cc3)CC2)c1NC(=O)O[C@H](C)c1ccccc1 [Compound 80] | < 0.1 µM | 25 to 50% | 50 to 75% | < 0.01 µM | > 75% |
| Cc1noc(C2CCN(c3ccc(C4(C(=O)NS(=O)(=O)CCC(=O)O)CC4)cc3)CC2)c1NC(=O)O[C@H](C)c1ccccc1 [Compound 83] | < 0.1 µM | ≤ 25% | > 75% | < 0.01 µM | > 75% |
| Cc1noc(C2CCN(c3ccc(C4(C(=O)NS(=O)(=O)CCCC(=O)O)CC4)cc3)CC2)c1NC(=O)O[C@H](C)c1ccccc1 [Compound 84] | 0.1 to 0.5 µM | ≤ 25% | > 75% | < 0.01 µM | 50 to 75% |
| C[C@@H](OC(=O)Nc1cc(Cl)sc1C1CCN(c2ccc(C3(C(=O)O)CC3)cc2)CC1)c1ccccc1 [Compound 92, 1-(4-{4-[5-chloro-3-({[(1R)-1-phenylethoxy]carbonyl}amino)thiophen-2-yl]piperidin-1-yl}phenyl)cyclopropane-1-carboxylic acid] | < 0.1 µM | 75 to 100% | – | 0.01 to 0.2 µM | – |
| C[C@@H](OC(=O)Nc1ccsc1C1CCN(c2ccc(C3(C(=O)O)CC3)cc2)CC1)c1ccccc1 [Compound 93] | < 0.1 µM | 50 to 75% | – | 0.01 to 0.2 µM | – |
| Cc1nsc(C2CCN(c3ccc(C4(C(=O)O)CC4)cc3)CC2)c1NC(=O)O[C@H](C)c1ccccc1 [Compound 95] | 0.1 to 0.5 µM | 25 to 50% | – | 0.01 to 0.2 µM | – |
